This is an account of results in the NIST ThermoML archive (doi:10.1021/je050162g).

The conditions of series [1]: Liquid; for viscosity / speed of sound: 101 kPa; for viscosity: Capillary tube (Ostwald / Ubbelohde) method; for speed of sound: Linear variable-path acoustic interferometer; for mass density: 101.33 kPa, Pycnometric method.
A short description of series [2]: xn = mol fraction of the nth substance listed. The conditions noted are these: 101 kPa, Liquid, x1 = 1; for viscosity: Capillary tube (Ostwald / Ubbelohde) method; for excess molar volume: Direct dilatometry; for speed of sound: Linear variable-path acoustic interferometer.

± gives the expanded uncertainty stated by the source.

For the molecule `Cc1ccc(C)cc1` [1,4-dimethylbenzene], in series [1] (303.15 K), the viscosity was found to be 0.566 ± 0.016 mPa·s, the speed of sound was determined as 1283.7 ± 5.2 m/s and the mass density amounted to 852.3 ± 2.3 kg/m3. For the same molecule, in series [1] (308.15 K), the viscosity worked out at 0.537 ± 0.015 mPa·s, the speed of sound is recorded as 1271 ± 5.2 m/s and the mass density is reported as 847.9 ± 2.3 kg/m3. Besides, in series [1] (313.15 K), the viscosity came to 0.513 ± 0.015 mPa·s, the speed of sound was 1260 ± 5.2 m/s and the mass density is 843.6 ± 2.3 kg/m3. Besides, in series [1] (410 K), the “vapor or sublimation pressure” value stood at 97.3 ± 3 kPa.

For the molecule `Cc1ccc(C)cc1` [1,4-dimethylbenzene] + C=COC(C)=O, in series [2] (303.15 K), the viscosity turned out to be 0.566 ± 0.016 mPa·s, the excess molar volume is reported as 0 ± 6e-09 m3/mol and the speed of sound is 1283.7 ± 5.2 m/s. Also, in series [2] (308.15 K), the viscosity was 0.537 ± 0.015 mPa·s, the excess molar volume turned out to be 0 ± 6e-09 m3/mol and the speed of sound turned out to be 1271 ± 5.2 m/s. Besides, in series [2] (313.15 K), the viscosity stood at 0.513 ± 0.015 mPa·s, the excess molar volume worked out at 0 ± 6e-09 m3/mol and the speed of sound turned out to be 1260 ± 5.2 m/s.

In the case of `C=COC(C)=O` [vinyl acetate], in series [1] (303.15 K), the viscosity worked out at 0.384 ± 0.012 mPa·s, the speed of sound was 1095.9 ± 5.2 m/s and the mass density was 918 ± 6.8 kg/m3. For the same molecule, in series [1] (308.15 K), the viscosity is 0.361 ± 0.011 mPa·s, the speed of sound came to 1072.5 ± 5.1 m/s and the mass density was 904.2 ± 6.7 kg/m3. In series [1] (313.15 K), the viscosity is on record as 0.332 ± 0.011 mPa·s, the speed of sound was 1055.7 ± 5.1 m/s and the mass density worked out at 891.8 ± 6.7 kg/m3. The “vapor or sublimation pressure” value in series [1] (344.68 K) is listed as 97.3 ± 3 kPa.

A word on the viscosity: it is the resistance of a fluid to flow. One may read the speed of sound as the propagation velocity of pressure waves in the medium. As usually defined, the mass density is mass per unit of volume. The term vapor or sublimation pressure denotes the pressure of vapour in equilibrium with the condensed phase.
